Measurements reported in patent US11180462B2, “Microbiocidal oxadiazole derivatives” (SYNGENTA PARTICIPATIONS AG, priority 2015, dated 2021).

Each molecule was assayed on Glomerella lagenarium (Colletotrichum lagenarium) (assay: Fungicidal activity against Glomerella lagenarium (Colletotrichum lagenarium) liquid culture / cucumber / preventative (anthracnose)). Details: Colletotrichum orbiculare; 20 ppm in the applied formulation; liquid culture (PDB), growth inhibition measured photometrically after 3 to 4 days; compared to untreated control; read-out: disease control.
Format: cell-based
Protocol: Mycelia fragments or conidia suspensions of a fungus prepared either freshly from liquid cultures of the fungus or from cryogenic storage, are directly mixed into nutrient broth. DMSO solutions of the test compound (max. 10 mg/ml) are diluted with 0.025% Tween20 by a factor of 50 and 10 μl of this solution is pipetted into a microtiter plate (96-well format). The nutrient broth containing the fungal spores/mycelia fragments is then added to give an end concentration of the tested compound. The test plates are incubated in the dark at 24° C. and 96% relative humidity. The inhibition of fungal growth is determined photometrically after 2 to 7 days, depending on the pathosystem, and percent antifungal activity relative to the untreated check is calculated.
Fungicidal activity against Glomerella lagenarium (Colletotrichum lagenarium) liquid culture/cucumber/Preventative (Anthracnose)
Conidia of the fungus from cryogenic storage are directly mixed into nutrient broth (PDB—potato dextrose broth). After placing a (DMSO) solution of test compound into a microtiter plate (96-well format), the nutrient broth containing the fungal spores is added.
The following compounds at 20 ppm in the applied formulation give at least 80% disease control in this test when compared to untreated control under the same conditions, which show extensive disease development.
With CCCON(Cc1ccc(-c2noc(C(F)(F)F)n2)cc1)C(=O)C1CC1 [Compound 1.319, N-propoxy-N-[[4-[5-(trifluoromethyl)-1,2,4-oxadiazol-3-yl]phenyl]methyl]-cyclopropane-carboxamide] the inhibition of growth at 20 ppm was at least 80%.
CCCON(Cc1ccc(-c2noc(C(F)(F)F)n2)cc1)C(=O)CCCOC [Compound 1.321, 4-methoxy-N-propoxy-N-[[4-[5-(trifluoromethyl)-1,2,4-oxadiazol-3-yl]phenyl]methyl]-butanamide] showed an inhibition of growth at 20 ppm of at least 80%.
Work on CCCCC(=O)N(Cc1ccc(-c2noc(C(F)(F)F)n2)cc1)OCCC [Compound 1.322, N-propoxy-N-[[4-[5-(trifluoromethyl)-1,2,4-oxadiazol-3-yl]phenyl]methyl]-pentanamide] yielded an inhibition of growth at 20 ppm of at least 80%.
Work on C=CC(=O)N(CCOC)Cc1ccc(-c2noc(C(F)(F)F)n2)cc1 [Compound 1.343, N-(2-methoxyethyl)-N-[[4-[5-(trifluoromethyl)-1,2,4-oxadiazol-3-yl]phenyl]methyl]prop-2-enamide] yielded an inhibition of growth at 20 ppm of at least 80%.
Molecule CCC(C)N(Cc1ccc(-c2noc(C(F)(F)F)n2)cc1)C(=O)CC(C)C (stereo not shown) [Compound 1.380, 3-methyl-N-sec-butyl-N-[[4-[5-(trifluoromethyl)-1,2,4-oxadiazol-3-yl]phenyl]methyl]-butanamide] has an inhibition of growth at 20 ppm of at least 80%.
In the case of CCC(C)N(Cc1ccc(-c2noc(C(F)(F)F)n2)cc1)C(=O)C1CCC1 (stereo not shown) [Compound 1.381, N-sec-butyl-N-[[4-[5-(trifluoromethyl)-1,2,4-oxadiazol-3-yl]phenyl]methyl]-cyclobutane-carboxamide], the inhibition of growth at 20 ppm is reported as at least 80%.
CCC(C)N(Cc1ccc(-c2noc(C(F)(F)F)n2)cc1)C(=O)C=CC(F)(F)F (stereo not shown) [Compound 1.382, 4,4,4-trifluoro-N-sec-butyl-N-[[4-[5-(trifluoromethyl)-1,2,4-oxadiazol-3-yl]phenyl]methyl]but-2-enamide] gave an inhibition of growth at 20 ppm of at least 80%.
Work on CCC(C)N(Cc1ccc(-c2noc(C(F)(F)F)n2)cc1)C(=O)C1CC1C (stereo not shown) [Compound 1.385, 2-methyl-N-sec-butyl-N-[[4-[5-(trifluoromethyl)-1,2,4-oxadiazol-3-yl]phenyl]methyl]-cyclopropane-carboxamide] yielded an inhibition of growth at 20 ppm of at least 80%.
CCC(C)N(Cc1ccc(-c2noc(C(F)(F)F)n2)cc1)C(=O)C1(F)CC1 (stereo not shown) [Compound 1.393, 1-fluoro-N-sec-butyl-N-[[4-[5-(trifluoromethyl)-1,2,4-oxadiazol-3-yl]phenyl]methyl]-cyclopropane-carboxamide] showed an inhibition of growth at 20 ppm of at least 80%.
CCC(C)C(=O)N(Cc1ccc(-c2noc(C(F)(F)F)n2)cc1)C(C)CC (stereo not shown) [Compound 1.394, 2-methyl-N-sec-butyl-N-[[4-[5-(trifluoromethyl)-1,2,4-oxadiazol-3-yl]phenyl]methyl]-butanamide] was tested, and the inhibition of growth at 20 ppm was at least 80%.
With CCC(COC)C(=O)N(Cc1ccc(-c2noc(C(F)(F)F)n2)cc1)C(C)CC (stereo not shown) [Compound 1.397, 2-(methoxymethyl)-N-sec-butyl-N-[[4-[5-(trifluoromethyl)-1,2,4-oxadiazol-3-yl]phenyl]methyl]-butanamide] the inhibition of growth at 20 ppm was at least 80%.
CCCCC(=O)N(Cc1ccc(-c2noc(C(F)(F)F)n2)cc1)C(C)CC (stereo not shown) [Compound 1.409, N-sec-butyl-N-[[4-[5-(trifluoromethyl)-1,2,4-oxadiazol-3-yl]phenyl]methyl]-pentanamide] showed an inhibition of growth at 20 ppm of at least 80%.
Molecule O=C(C1CCCC1)N(Cc1ccc(-c2noc(C(F)(F)F)n2)cc1)CC1CCCO1 (stereo not shown) [Compound 1.419, N-(tetrahydrofuran-2-ylmethyl)-N-[[4-[5-(trifluoromethyl)-1,2,4-oxadiazol-3-yl]phenyl]methyl]-cyclopentane-carboxamide] has an inhibition of growth at 20 ppm of at least 80%.
Work on O=C(C1=CCCC1)N(Cc1ccc(-c2noc(C(F)(F)F)n2)cc1)CC1CCCO1 (stereo not shown) [Compound 1.420, N-(tetrahydrofuran-2-ylmethyl)-N-[[4-[5-(trifluoromethyl)-1,2,4-oxadiazol-3-yl]phenyl]methyl]-cyclopentene-1-carboxamide] yielded an inhibition of growth at 20 ppm of at least 80%.
O=C(C=CC(F)(F)F)N(Cc1ccc(-c2noc(C(F)(F)F)n2)cc1)CC1CCCO1 (stereo not shown) [Compound 1.425, 4,4,4-trifluoro-N-(tetrahydrofuran-2-ylmethyl)-N-[[4-[5-(trifluoromethyl)-1,2,4-oxadiazol-3-yl]phenyl]methyl]-but-2-enamide] was tested, and the inhibition of growth at 20 ppm was at least 80%.
With CC1CC1C(=O)N(Cc1ccc(-c2noc(C(F)(F)F)n2)cc1)CC1CCCO1 (stereo not shown) [Compound 1.428, 2-methyl-N-(tetrahydrofuran-2-ylmethyl)-N-[[4-[5-(trifluoromethyl)-1,2,4-oxadiazol-3-yl]phenyl]methyl]-cyclopropane-carboxamide] the inhibition of growth at 20 ppm was at least 80%.
Molecule CC(C)(C)CC(=O)N(Cc1ccc(-c2noc(C(F)(F)F)n2)cc1)CC1CCCO1 (stereo not shown) [Compound 1.429, 3,3-dimethyl-N-(tetrahydrofuran-2-ylmethyl)-N-[[4-[5-(trifluoromethyl)-1,2,4-oxadiazol-3-yl]phenyl]methyl]-butanamide] has an inhibition of growth at 20 ppm of at least 80%.
With CC(=O)C=CC(=O)N(Cc1ccc(-c2noc(C(F)(F)F)n2)cc1)CC1CCCO1 (stereo not shown) [Compound 1.439, 4-oxo-N-(tetrahydrofuran-2-ylmethyl)-N-[[4-[5-(trifluoromethyl)-1,2,4-oxadiazol-3-yl]phenyl]methyl]-pent-2-enamide] the inhibition of growth at 20 ppm was at least 80%.
In the case of N#CCC(=O)N(Cc1ccc(-c2noc(C(F)(F)F)n2)cc1)Cc1ccco1 [Compound 1.470, 2-cyano-N-(2-furylmethyl)-N-[[4-[5-(trifluoromethyl)-1,2,4-oxadiazol-3-yl]phenyl]methyl]-acetamide], the inhibition of growth at 20 ppm is reported as at least 80%.
COCCC(=O)N(Cc1ccc(-c2noc(C(F)(F)F)n2)cc1)OCC=C(Cl)Cl [Compound 1.533, N-(3,3-dichloroallyloxy)-3-methoxy-N-[[4-[5-(trifluoromethyl)-1,2,4-oxadiazol-3-yl]phenyl]methyl]-propanamide] was tested, and the inhibition of growth at 20 ppm was at least 80%.
Molecule CCC(=O)N(Cc1ccc(-c2noc(C(F)(F)F)n2)cc1)OCC=C(Cl)Cl [Compound 1.534, N-(3,3-dichloroallyloxy)-N-[[4-[5-(trifluoromethyl)-1,2,4-oxadiazol-3-yl]phenyl]methyl]-propanamide] has an inhibition of growth at 20 ppm of at least 80%.
Molecule COCC(=O)N(Cc1ccc(-c2noc(C(F)(F)F)n2)cc1)OCC=C(Cl)Cl [Compound 1.535, N-(3,3-dichloroallyloxy)-2-methoxy-N-[[4-[5-(trifluoromethyl)-1,2,4-oxadiazol-3-yl]phenyl]methyl]-acetamide] has an inhibition of growth at 20 ppm of at least 80%.
CC1CC1C(=O)N(Cc1ccc(-c2noc(C(F)(F)F)n2)cc1)OCC=C(Cl)Cl (stereo not shown) [Compound 1.536, N-(3,3-dichloroallyloxy)-2-methyl-N-[[4-[5-(trifluoromethyl)-1,2,4-oxadiazol-3-yl]phenyl]methyl]-cyclopropane-carboxamide] showed an inhibition of growth at 20 ppm of at least 80%.
O=C(CCl)N(Cc1ccc(-c2noc(C(F)(F)F)n2)cc1)OCC=C(Cl)Cl [Compound 1.538, 2-chloro-N-(3,3-dichloroallyloxy)-N-[[4-[5-(trifluoromethyl)-1,2,4-oxadiazol-3-yl]phenyl]methyl]-acetamide] was tested, and the inhibition of growth at 20 ppm was at least 80%.
In the case of CC(C)C(=O)N(Cc1ccc(-c2noc(C(F)(F)F)n2)cc1)OCC=C(Cl)Cl [Compound 1.539, N-(3,3-dichloroallyloxy)-2-methyl-N-[[4-[5-(trifluoromethyl)-1,2,4-oxadiazol-3-yl]phenyl]methyl]-propanamide], the inhibition of growth at 20 ppm is reported as at least 80%.
Molecule O=C(C1CC1(F)F)N(Cc1ccc(-c2noc(C(F)(F)F)n2)cc1)OCC=C(Cl)Cl (stereo not shown) [Compound 1.540, N-(3,3-dichloroallyloxy)-2,2-difluoro-N-[[4-[5-(trifluoromethyl)-1,2,4-oxadiazol-3-yl]phenyl]methyl]-cyclopropane-carboxamide] has an inhibition of growth at 20 ppm of at least 80%.
In the case of CCCC(=O)N(Cc1ccc(-c2noc(C(F)(F)F)n2)cc1)OCC=C(Cl)Cl [Compound 1.541, N-(3,3-dichloroallyloxy)-N-[[4-[5-(trifluoromethyl)-1,2,4-oxadiazol-3-yl]phenyl]methyl]-butanamide], the inhibition of growth at 20 ppm is reported as at least 80%.
In the case of CCC(C)C(=O)N(Cc1ccc(-c2noc(C(F)(F)F)n2)cc1)OCC=C(Cl)Cl (stereo not shown) [Compound 1.542, N-(3,3-dichloroallyloxy)-2-methyl-N-[[4-[5-(trifluoromethyl)-1,2,4-oxadiazol-3-yl]phenyl]methyl]-butanamide], the inhibition of growth at 20 ppm is reported as at least 80%.
Molecule COCCCC(=O)N(Cc1ccc(-c2noc(C(F)(F)F)n2)cc1)OCC=C(Cl)Cl [Compound 1.543, N-(3,3-dichloroallyloxy)-4-methoxy-N-[[4-[5-(trifluoromethyl)-1,2,4-oxadiazol-3-yl]phenyl]methyl]-butanamide] has an inhibition of growth at 20 ppm of at least 80%.
With CC1(C(=O)N(Cc2ccc(-c3noc(C(F)(F)F)n3)cc2)OCC=C(Cl)Cl)COC1 [Compound 1.544, N-(3,3-dichloroallyloxy)-3-methyl-N-[[4-[5-(trifluoromethyl)-1,2,4-oxadiazol-3-yl]phenyl]methyl]-oxetane-3-carboxamide] the inhibition of growth at 20 ppm was at least 80%.
Work on O=C(C1CC1F)N(Cc1ccc(-c2noc(C(F)(F)F)n2)cc1)OCC=C(Cl)Cl (stereo not shown) [Compound 1.545, N-(3,3-dichloroallyloxy)-2-fluoro-N-[[4-[5-(trifluoromethyl)-1,2,4-oxadiazol-3-yl]phenyl]methyl]-cyclopropane-carboxamide] yielded an inhibition of growth at 20 ppm of at least 80%.
